Data as given in patent US9334263B2, “Compositions useful for treating disorders related to kit” (BLUEPRINT MEDICINES CORPORATION, priority 2013, dated 2016).

Columns and labels:
D816V Kit = target: T1, D816V Kit (Homo sapiens, UniProt P10721, D816V); test: Kit D816V assay at Km (Caliper electrophoretic mobility shift); format: biochemical; conditions: 15 uM ATP, 25 C, 90 minutes
T1 construct: purchased Carna Bioscience 08-156
Procedure, shortened: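 Read-out is the ratio of phosphorylated to unphosphorylated fluorescent peptide, resolved by mobility shift on a Caliper EZ Reader 2.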

wild type Kit = target: T2, wild type Kit (Homo sapiens, UniProt P10721); test: Kit wild type assay at Km (Caliper electrophoretic mobility shift); format: biochemical; conditions: 400 uM ATP, 25 C, 90 minutes; read-out: WT KIT
T2 construct: purchased Carna Bioscience 08-156
Experimental: (§1) In order to assess the activity of chemical compounds against the relevant kinase of interest, the Caliper LifeSciences electrophoretic mobility shift technology platform is used. Fluorescently labeled substrate peptide is incubated in the presence of kinase and ATP so that a […] proportion of the peptide is phosphorylated. At the end of the reaction, the mix of phosphorylated (product) and non-phosphorylated (substrate) peptides are passed through the microfluidic system of the Caliper EZ Reader 2, under an applied potential difference. The presence of the phosphate group on the product peptide provides a difference in mass and charge between those of the substrate peptide, resulting in a separation of the substrate and product pools in the sample. As the pools pass a LEDS within the instrument, these pools are detected and resolved as separate peaks. The ratio between these peaks therefore reflects the activity of the chemical matter at that concentration in that well, under those conditions.
(§2) The reaction was stopped by the addition of 70 ul of Stop buffer (100 mM HEPES pH 7.5, 0.015% Brij 35, 35 mM EDTA and 0.2% of Coating Reagent 3 (Caliper Lifesciences)). The plate was then read on a Caliper EZReader 2 (protocol settings: −1.9 psi, upstream voltage −700, downstream voltage −3000, post sample sip 35 s).

PDGFRA D842V = target: T3, PDGFRA D842V (Homo sapiens, UniProt P16234, D842V); test: PDGFRA D842V assay at Km (Caliper electrophoretic mobility shift); format: biochemical; conditions: 15 uM ATP, 25 C, 90 minutes; read-out: PDFGRA D842V
T3 construct: purchased ProQinase 0761-0000-1
Experimental: as §1
as §2, with “voltage −500,” for “voltage −700,”, “sip 38” for “sip 35”

[1] = target: T4, Kit D816V (HMC1.2 cells, Kit V560G and D816V) (Homo sapiens, UniProt P10721, D816V/V560G); test: HMC1.2 autophosphorylation assay (AlphaLISA, phospho-Y719 c-Kit); format: cell-based; conditions: Kit autophosphorylation at tyrosine 719, 90 minutes, read-out: Cellular Activity
T4 construct: endogenous in cells; host or cells: HMC1.2 cells
Procedure, shortened: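 Serum-starved (overnight, serum-free IMDM) HMC1.2 cells were treated for 90 min with a 10-point compound series (25 uM–95.4 pM, 0.25% DMSO final). Lysates were probed with phospho-Y719 and total c-Kit antibodies (15 nM final) plus AlphaLISA acceptor and streptavidin donor beads (2 h each, RT), with AlphaScreen read-out.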

T4 sequence (P10721 26-976 V560G/D816V): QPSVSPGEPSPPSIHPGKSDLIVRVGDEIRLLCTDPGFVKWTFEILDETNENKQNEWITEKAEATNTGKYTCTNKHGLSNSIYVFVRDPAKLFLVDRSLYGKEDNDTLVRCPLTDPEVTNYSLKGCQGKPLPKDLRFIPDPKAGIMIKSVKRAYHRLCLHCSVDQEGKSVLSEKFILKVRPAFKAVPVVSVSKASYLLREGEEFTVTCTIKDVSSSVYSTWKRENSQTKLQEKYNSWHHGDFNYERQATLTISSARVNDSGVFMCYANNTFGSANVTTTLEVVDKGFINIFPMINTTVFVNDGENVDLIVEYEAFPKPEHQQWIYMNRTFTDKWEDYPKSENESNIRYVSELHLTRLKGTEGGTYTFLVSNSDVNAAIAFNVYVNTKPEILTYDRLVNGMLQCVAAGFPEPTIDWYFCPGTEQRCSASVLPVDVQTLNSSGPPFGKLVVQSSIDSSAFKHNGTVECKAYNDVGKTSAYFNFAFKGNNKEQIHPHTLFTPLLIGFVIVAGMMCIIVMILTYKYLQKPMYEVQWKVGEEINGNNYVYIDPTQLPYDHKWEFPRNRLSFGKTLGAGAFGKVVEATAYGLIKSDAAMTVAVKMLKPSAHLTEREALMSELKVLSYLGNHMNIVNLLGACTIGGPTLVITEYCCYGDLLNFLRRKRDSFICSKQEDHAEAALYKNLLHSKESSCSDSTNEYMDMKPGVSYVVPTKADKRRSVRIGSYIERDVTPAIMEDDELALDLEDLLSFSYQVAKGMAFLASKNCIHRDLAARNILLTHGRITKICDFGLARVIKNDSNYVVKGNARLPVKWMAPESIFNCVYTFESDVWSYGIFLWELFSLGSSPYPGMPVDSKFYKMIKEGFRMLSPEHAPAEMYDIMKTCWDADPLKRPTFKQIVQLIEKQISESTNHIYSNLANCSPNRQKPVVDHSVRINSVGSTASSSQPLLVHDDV
T3 sequence (P16234 24-1089 D842V): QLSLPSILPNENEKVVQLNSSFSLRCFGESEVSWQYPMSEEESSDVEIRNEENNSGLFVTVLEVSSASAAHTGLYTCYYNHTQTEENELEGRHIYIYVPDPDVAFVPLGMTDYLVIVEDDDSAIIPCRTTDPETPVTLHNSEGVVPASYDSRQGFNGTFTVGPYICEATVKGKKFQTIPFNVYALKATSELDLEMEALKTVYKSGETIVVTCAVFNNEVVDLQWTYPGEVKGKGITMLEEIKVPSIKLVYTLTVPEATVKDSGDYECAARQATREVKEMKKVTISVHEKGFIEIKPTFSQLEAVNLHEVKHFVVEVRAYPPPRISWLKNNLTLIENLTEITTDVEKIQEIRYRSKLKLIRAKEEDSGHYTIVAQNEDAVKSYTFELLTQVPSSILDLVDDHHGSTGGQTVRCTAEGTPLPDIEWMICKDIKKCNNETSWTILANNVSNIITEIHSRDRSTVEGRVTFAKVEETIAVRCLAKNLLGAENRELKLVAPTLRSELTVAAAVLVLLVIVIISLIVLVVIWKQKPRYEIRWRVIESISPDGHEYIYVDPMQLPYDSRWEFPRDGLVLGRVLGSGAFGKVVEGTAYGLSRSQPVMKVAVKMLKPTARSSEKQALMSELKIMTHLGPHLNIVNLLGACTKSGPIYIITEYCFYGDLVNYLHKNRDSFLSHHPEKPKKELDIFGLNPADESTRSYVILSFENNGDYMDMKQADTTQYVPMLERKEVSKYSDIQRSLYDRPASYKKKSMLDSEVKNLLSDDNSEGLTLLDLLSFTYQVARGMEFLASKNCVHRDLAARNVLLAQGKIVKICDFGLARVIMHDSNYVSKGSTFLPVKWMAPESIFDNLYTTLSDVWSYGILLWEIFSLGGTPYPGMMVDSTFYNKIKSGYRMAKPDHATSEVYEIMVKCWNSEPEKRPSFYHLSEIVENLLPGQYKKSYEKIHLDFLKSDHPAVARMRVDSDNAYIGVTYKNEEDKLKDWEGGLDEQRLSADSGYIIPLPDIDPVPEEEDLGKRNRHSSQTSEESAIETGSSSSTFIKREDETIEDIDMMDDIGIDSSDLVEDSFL
T1 sequence (P10721 26-976 D816V): as the sequence (P10721 26-976 V560G/D816V) above, with G535V counted along it
T2 sequence (P10721 26-976): as the sequence (P10721 26-976 V560G/D816V) above, with G535V, V791D counted along it

| IC50 (D816V Kit) [nM] | IC50 (wild type Kit) [nM] | IC50 (PDGFRA D842V) [nM] | IC50 [1] [nM] | SMILES |
| --- | --- | --- | --- | --- |
| < 1 | – | 1.01 to 10 | 10 to 100 | Fc1ccc(Sc2cnc(N3CCN(c4ncnc(Nc5cnn(C[C@@H]6CNCCO6)c5)n4)CC3)nc2)cc1 [Compound 256] |
| < 1 | < 10 | < 1 | 10 to 100 | CN(C)C1CCN(Cc2cccc(Nc3ncnc(N4CCN(c5ncc(Cc6ccccc6)cn5)CC4)n3)c2)C1 (centres unmarked) [Compound 259] |
| 1.01 to 10 | – | 1.01 to 10 | 10 to 100 | O[C@@H]1CCCN(c2ccc(Nc3ncnc(N4CCN(c5ncc(Cc6ccc(F)cc6)cn5)CC4)n3)cc2)C1 [Compound 239] |
| 1.01 to 10 | – | 1.01 to 10 | 10 to 100 | CC(C)(c1ccccc1)c1cnc(N2CCN(c3ncnc(Nc4ccc(N5CCC[C@@H](O)C5)cc4)n3)CC2)nc1 [Compound 263] |
| < 1 | – | 1.01 to 10 | 10 to 100 | CN1CCN(Cc2cccc(Nc3ncnc(N4CCN(c5ncc(Cc6ccccc6)cn5)CC4)n3)c2)CC1 [Compound 211] |
| 1.01 to 10 | – | 1.01 to 10 | 10 to 100 | C[C@]1(O)CCCN(c2ccc(Nc3ncnc(N4CCN(c5ncc(Cc6ccccc6)cn5)CC4)n3)cc2)C1 (single isomer, unassigned) [Compound 226] |
| < 1 | < 10 | – | 10 to 100 | CN(C)[C@H]1CCN(Cc2cccc(Nc3ncnc(N4CCN(c5ncc(Cc6ccccc6)cn5)CC4)n3)c2)C1 [Compound 260] |
| < 1 | 11 to 100 | – | 10 to 100 | OC1(Cn2cc(Nc3ncnc(N4CCN(c5ncc(Cc6ccccc6)cn5)CC4)n3)cn2)CCNCC1 [Compound 182] |
| < 1 | < 10 | – | < 10 | FC1(Cn2cc(Nc3ncnc(N4CCN(c5ncc(Cc6ccccc6)cn5)CC4)n3)cn2)CCNCC1 [Compound 191] |
| 1.01 to 10 | – | 1.01 to 10 | < 10 | Cc1c(Nc2ncnc(N3CCN(c4ncc(Cc5ccc(F)cc5)cn4)CC3)n2)cnn1C[C@@H]1CNCCO1 [Compound 271] |
| < 1 | < 10 | – | 10 to 100 | CN1CCC[C@H]1COc1ccc(Nc2ncnc(N3CCN(c4ncc(Cc5ccccc5)cn4)CC3)n2)cc1 [Compound 219] |
| 1.01 to 10 | 11 to 100 | – | 100 to 1000 | Cc1cc(N2CCN(C)CC2)ccc1Nc1ncnc(N2CCN(c3ncc(Cc4ccccc4)cn3)CC2)n1 [Compound 212] |

Continued, compound first:

| SMILES | IC50 (D816V Kit) [nM] | IC50 (wild type Kit) [nM] | IC50 (PDGFRA D842V) [nM] | IC50 [1] [nM] |
| --- | --- | --- | --- | --- |
| c1ccc(Cc2cnc(N3CCN(c4ncnc(Nc5cnn(CC6CCNCC6)c5)n4)CC3)nc2)cc1 [Compound 116] | < 1 | < 10 | < 1 | 10 to 100 |
| c1ccc(Cc2cnc(N3CCN(c4ncnc(Nc5cnn(C[C@H]6CNCCO6)c5)n4)CC3)nc2)cc1 [Compound 123] | < 1 | < 10 | < 1 | < 10 |
| c1ccc(Cc2cnc(N3CCN(c4ncnc(Nc5cn[nH]c5)n4)CC3)nc2)cc1 [Compound 4] | < 1 | < 10 | < 1 | 10 to 100 |
| CC(C)(O)Cn1cc(Nc2ncnc(N3CCN(c4ncc(Sc5ccc(F)cc5)cn4)CC3)n2)cn1 [Compound 149] | < 1 | – | 1.01 to 10 | 10 to 100 |
| c1ccc(Cc2cnc(N3CCN(c4ncnc(Nc5cccc(C6CCCNC6)c5)n4)CC3)nc2)cc1 (centres unmarked) [Compound 98] | < 1 | < 10 | < 1 | 10 to 100 |
| c1ccc(Cc2cnc(N3CCN(c4ncnc(Nc5cnn(CC6CCCNC6)c5)n4)CC3)nc2)cc1 (centres unmarked) [Compound 117] | < 1 | < 10 | < 1 | 10 to 100 |
| CN1CCN(c2cccc(Nc3ncnc(N4CCN(c5ncc(Cc6ccccc6)cn5)CC4)n3)c2)CC1 [Compound 157] | < 1 | < 10 | 1.01 to 10 | 100 to 1000 |
| c1ccc(Cc2cnc(N3CCN(c4ncnc(Nc5cnc6c(c5)CNCC6)n4)CC3)nc2)cc1 [Compound 43] | < 1 | 11 to 100 | 1.01 to 10 | 10 to 100 |
| c1ccc(Cc2cnc(N3CCN(c4ncnc(Nc5ccc(O[C@@H]6CCCNC6)cc5)n4)CC3)nc2)cc1 [Compound 161] | < 1 | < 10 | 1.01 to 10 | < 10 |
| CN(C)CCCn1cc(Nc2ncnc(N3CCN(c4ncc(Cc5ccccc5)cn4)CC3)n2)cn1 [Compound 88] | < 1 | 11 to 100 | < 1 | 10 to 100 |
| CC(C)N1CCc2ccc(Nc3ncnc(N4CCN(c5ncc(Cc6ccccc6)cn5)CC4)n3)cc2C1 [Compound 148] | < 1 | < 10 | < 1 | 10 to 100 |
| CN1CCc2ccc(Nc3ncnc(N4CCN(c5ncc(Cc6ccccc6)cn5)CC4)n3)cc2C1 [Compound 69] | < 1 | < 10 | < 1 | < 10 |
| O=C1CCc2ccc(Nc3ncnc(N4CCN(c5ncc(Cc6ccccc6)cn5)CC4)n3)cc2N1 [Compound 68] | 1.01 to 10 | 11 to 100 | < 1 | 10 to 100 |
| OC[C@@H](O)c1ccc(Nc2ncnc(N3CCN(c4ncc(Cc5ccccc5)cn4)CC3)n2)cc1 (single isomer, unassigned) [Compound 56] | < 1 | – | < 1 | 10 to 100 |
| CNC(C)c1cccc(Nc2ncnc(N3CCN(c4ncc(Cc5ccccc5)cn4)CC3)n2)c1 (centres unmarked) [Compound 48] | < 1 | < 10 | < 1 | 10 to 100 |
| c1ccc(Cc2cnc(N3CCN(c4ncnc(Nc5cnn(C[C@@H]6CNCCO6)c5)n4)CC3)nc2)cc1 [Compound 124] | < 1 | < 10 | < 1 | 10 to 100 |
| CN1CCC(Cn2cc(Nc3ncnc(N4CCN(c5ncc(Cc6ccccc6)cn5)CC4)n3)cn2)CC1 [Compound 174] | < 1 | < 10 | < 1 | < 10 |
| C[C@H](O)Cn1cc(Nc2ncnc(N3CCN(c4ncc(Sc5ccc(F)cc5)cn4)CC3)n2)cn1 [Compound 101] | < 1 | – | < 1 | < 10 |
| c1ccc(Cc2cnc(N3CCN(c4ncnc(Nc5cccc(O[C@@H]6CCNC6)c5)n4)CC3)nc2)cc1 [Compound 106] | – | – | 1.01 to 10 | – |
| CN1CCO[C@H](Cn2cc(Nc3ncnc(N4CCN(c5ncc(Cc6ccccc6)cn5)CC4)n3)cn2)C1 [Compound 181] | < 1 | < 10 | – | 10 to 100 |
| c1ccc(Cc2cnc(N3CCN(c4ncnc(Nc5cnn(C[C@H]6CCCN6)c5)n4)CC3)nc2)cc1 [Compound 84] | < 1 | < 10 | – | 10 to 100 |
| OC[C@H](O)c1ccc(Nc2ncnc(N3CCN(c4ncc(Cc5ccccc5)cn4)CC3)n2)cc1 (single isomer, unassigned) [Compound 57] | < 1 | – | 1.01 to 10 | 10 to 100 |
| C[C@@H]1CN(c2ncnc(Nc3ccc(N4CCOCC4)cc3)n2)CCN1c1ncc(Cc2ccccc2)cn1 [Compound 159] | 1.01 to 10 | 11 to 100 | – | 100 to 1000 |
| NCc1cccc(Nc2ncnc(N3CCN(c4ncc(Cc5ccccc5)cn4)CC3)n2)c1 [Compound 14] | < 1 | 11 to 100 | – | 100 to 1000 |
| c1ccc(Nc2cnc(N3CCN(c4ncnc(Nc5ccc(N6CCOCC6)cc5)n4)CC3)nc2)cc1 [Compound 114] | 1.01 to 10 | 100 to 1000 | – | 100 to 1000 |
| c1ccc(Cc2cnc(N3CCN(c4ncnc(Nc5ccc(O[C@H]6CCCNC6)cc5)n4)CC3)nc2)cc1 [Compound 162] | < 1 | < 10 | – | < 10 |
| NC(=O)c1cccc(Nc2ncnc(N3CCN(c4ncc(Cc5ccccc5)cn4)CC3)n2)c1 [Compound 23] | 1.01 to 10 | 11 to 100 | – | 100 to 1000 |
| Fc1ccccc1Cc1cnc(N2CCN(c3ncnc(Nc4ccc5c(c4)CNCC5)n3)CC2)nc1 [Compound 127] | < 1 | < 10 | – | 10 to 100 |
